Results on four compounds are retold here after ChEMBL document CHEMBL5120902, “Phytohabitols A-C, δ-Lactone-Terminated Polyketides from an Actinomycete of the Genus Phytohabitans” (J Nat Prod, 2022).

One data set concerns Bacillus subtilis. Kind of data set: Antibacterial activity against Bacillus subtilis assessed as inhibition of bacterial growth incubated for 48 hrs by liquid microculture method. The format is functional.
Data set [1] is described as follows: Antimigratory activity against human EC17 cells assessed as inhibition of cell migration incubated for 12 hrs by microscopic analysis. In kind it is functional, cell-based. Particulars: EC17, 12 h.
For another data set, the system named is Kocuria rhizophila. Briefly: Antibacterial activity against Kocuria rhizophila assessed as inhibition of bacterial growth incubated for 48 hrs by liquid microculture method. In kind it is functional.
The nature of data set [2]: Selectivity ratio of GI50 for cytotoxicity against rat 3Y1 cells to IC50 for antitrypanosomal activity against Trypanosoma cruzi epimastigotes. In kind it is toxicity, cell-based.
The subject of another data set is Trypanosoma cruzi. Kind of data set: Antitrypanosomal activity against Trypanosoma cruzi epimastigotes assessed as parasite growth inhibition measured after 24 hrs by CellTiter-glo luminescence assay. In kind it is functional, organism-based. In general terms: In ATP-based viability assays light output follows the ATP content of the culture.
A short description of data set [3]: Cytotoxicity against human EC17 cells at 0.18 to 18 uM incubated for 12 hrs. The format is toxicity, cell-based. Conditions: ec17, 12 h, dose 0.18-18 µM.
Data set [4] is described as follows: Cytotoxicity against rat 3Y1 cells assessed as cell growth inhibition incubated for 84 hrs by MTT assay. The format is toxicity, cell-based. (Tetrazolium dyes change colour on reduction, which living cells bring about.)

≈ marks a conversion by molar mass, not a printed value.

A word on the MIC: it is the lowest concentration found to suppress growth. A word on the IC50: it is the point on the concentration scale where inhibition reaches its midpoint. Usually GI50 stands for the concentration giving 50% growth inhibition. Regarding `C/C=C(\C)[C@@H](O)[C@H](C)[C@H](O)C/C=C(C)/C=C(\C)C/C(C)=C/C/C=C(\C)[C@@H](O)[C@@H](C)[C@H]1CC[C@H](CCC)C(=O)O1`, the MIC with Bacillus subtilis and in the data set with Kocuria rhizophila was 100 µg/mL (≈ 184 µM) throughout. For the same compound, the IC50 was 11 µM in data set [1] and 6.4 µM with Trypanosoma cruzi. Besides, the selectivity ratio in data set [2] worked out at 4.9. Besides, the Activity entry in data set [3] is recorded as “Non-Toxic”. In addition, the GI50 at 84 h in data set [4] was 31 µM.
In the case of `C/C=C(\C)[C@@H](O)[C@H](C)[C@H](O)C/C=C(C)/C=C(\C)C/C(C)=C/C/C=C(\C)[C@@H](O)[C@@H](C)[C@H]1CC[C@H](CCCC)C(=O)O1`, the MIC in the data set on Bacillus subtilis and in the data set on Kocuria rhizophila was 100 µg/mL (≈ 179 µM) in each case. For the same compound, the results for the IC50 (in data set [1]; in the data set on Trypanosoma cruzi) were 15 µM and 12 µM, respectively. For the same compound, the selectivity ratio in data set [2] amounted to 2.8. The Activity result in data set [3] is given as “Non-Toxic”. Moreover, the GI50 at 84 h in data set [4] stood at 32 µM.
As to `C/C=C(\C)[C@@H](O)[C@H](C)[C@H](O)C/C=C(C)/C=C(\C)C/C(C)=C/C/C=C(\C)[C@@H](O)[C@@H](C)[C@H]1CC[C@H](CC)C(=O)O1`, the minimal inhibitory concentration (MIC) with Bacillus subtilis and in the data set on Kocuria rhizophila was 100 µg/mL (≈ 188 µM) throughout. In addition, the IC50 worked out at 8.3 µM in data set [1] and 18 µM in the data set on Trypanosoma cruzi. In addition, in data set [2], the selectivity ratio worked out at 0.22. In addition, the Activity entry in data set [3] is given as “Non-Toxic”. Besides, in data set [4], the GI50 at 84 h stood at 3.8 µM.
On to `O=C(Cn1ccnc1[N+](=O)[O-])NCc1ccccc1` [BENZNIDAZOLE], for which the IC50 in the data set with Trypanosoma cruzi worked out at 16 µM.
